In PubChem BioAssay (NCI):
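A five-concentration, 48-hour dose response in 96-well plates underlies each endpoint, interpolated linearly between surrounding concentrations. Here, GI50 denotes the concentration required for 50% inhibition of growth. At the TGI there is no net growth.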

Legend:
Test in all cases: growth of human tumour cells (NCI), 48 h
HOP-92 NSCLC = test system: HOP-92 NSCLC
SN12C renal = test system: SN12C renal
SK-MEL-28 melanoma = test system: SK-MEL-28 melanoma
OVCAR-3 ovarian = test system: OVCAR-3 ovarian
SW-620 colon = test system: SW-620 colon
MOLT-4 leukemia = test system: MOLT-4 leukemia
786-0 renal = test system: 786-0 renal
EKVX NSCLC = test system: EKVX NSCLC
UACC-257 melanoma = test system: UACC-257 melanoma
CAKI-1 renal = test system: CAKI-1 renal

SMILES | GI50 (HOP-92 NSCLC) [µM] | TGI (HOP-92 NSCLC) [µM] | GI50 (SN12C renal) [µM] | TGI (SN12C renal) [µM] | GI50 (SK-MEL-28 melanoma) [µM] | TGI (SK-MEL-28 melanoma) [µM] | GI50 (OVCAR-3 ovarian) [µM] | TGI (OVCAR-3 ovarian) [µM] | GI50 (SW-620 colon) [nM] | TGI (SW-620 colon) [µM] | GI50 (MOLT-4 leukemia) [µM] | TGI (MOLT-4 leukemia) [µM] | GI50 (786-0 renal) [µM] | TGI (786-0 renal) [µM] | GI50 (EKVX NSCLC) [µM] | TGI (EKVX NSCLC) [µM] | GI50 (UACC-257 melanoma) [µM] | TGI (UACC-257 melanoma) [µM] | GI50 (CAKI-1 renal) [µM] | TGI (CAKI-1 renal) [µM]
CSc1nc(SC)c2cnn(-c3ccnc4cc(Cl)ccc34)c2n1 | > 63.6 | > 100 | 51 | > 100 | > 100 | > 100 | 6.87 | > 31.2 | > 59100 | > 100 | 42.5 | > 89.6 | 38.6 | > 100 | 25.9 | 70.5 | > 49.7 | > 86.4 | 22.9 | > 100
Clc1ccc(Nc2ncnc3ccccc23)cc1 | 13.8 | 73.2 | 23 | 73.1 | > 100 | > 100 | 34.9 | > 100 | > 100000 | > 100 | 20.6 | 59.5 | 64.7 | > 100 | 10.1 | > 100 | 49.9 | > 100 | 13.1 | 61.1
O=C(/C=C/c1cccnc1)c1ccccc1 | 4.62 | 19.2 | 12.2 | 25.9 | 13.1 | 25.8 | 4.25 | 15.7 | 1920 | 4.21 | 4.32 | 20.2 | 7.9 | 21.4 | 14.1 | 27.7 | 10.4 | 22.7 | 7.21 | 20.6
OCC(O)COc1ccc(F)cc1 (stereo unspecified) | – | > 100 | – | > 100 | – | > 100 | – | > 100 | – | > 100 | – | > 100 | – | > 100 | – | > 100 | – | > 100 | – | > 100
O=P1(O)c2ccccc2CSCc2ccccc21 | – | > 100 | – | > 100 | – | > 100 | – | > 100 | – | > 100 | – | > 100 | – | > 100 | – | > 100 | – | > 100 | – | > 100
CC(C)[C@]12O[C@H]1[C@@H]1O[C@]13[C@]1(O[C@H]1C[C@H]1C4=C(CC[C@@]13C)C(=O)OC4)[C@@H]2OC(=O)OC(C)(C)C | 0.0448 | – | 0.0261 | > 100 | 0.0176 | – | 0.0171 | 0.883 | < 10 | > 100 | 0.0156 | – | 0.0308 | > 100 | 0.0573 | > 100 | 0.0176 | 0.0544 | 0.0226 | > 100
CCOC(=O)Cc1csc(Nc2nc(O)c(C3=c4ccccc4=NC3=O)s2)n1 | 22.2 | 52.3 | 28 | 98.2 | 45.7 | > 100 | 26.9 | 61.5 | 68500 | > 100 | 36.7 | 88.9 | 21.7 | 43.2 | 77.6 | > 100 | 76.9 | > 100 | 24.3 | 57.2
COc1cc2c3c(n(CCCNC(C)(C)CO)c(=O)c2cc1OC)-c1cc2c(cc1C3=O)OCO2 | > 25.9 | > 53.1 | 0.157 | 2.65 | 25.4 | > 65.6 | 15.1 | 39.8 | 250 | 19 | – | 0.11 | 0.0829 | 0.66 | 16.6 | 42.7 | 19.1 | 49.9 | 0.446 | 23.8
CC1=CC=C2C(C)(C)CC[C@@H]3OC(=O)[C@H]1[C@]23C | – | > 100 | – | > 100 | – | > 100 | – | > 100 | – | > 100 | – | > 100 | – | > 100 | – | > 100 | – | > 100 | – | > 100
Cc1ccc(S(=O)OC2c3ccccc3Cc3ccccc32)cc1 (stereo unspecified) | – | 36.5 | – | 49.6 | – | 33.8 | – | 44.5 | – | 59.6 | – | 75.7 | – | 48.1 | – | 34.5 | – | 34.9 | – | 56.3
CCOC(=O)c1cc2c(OC)cc(OC)cc2oc1=O | – | > 100 | – | > 100 | – | > 100 | – | > 100 | – | > 100 | – | > 100 | – | > 100 | – | > 100 | – | > 100 | – | > 100
CCN1C2=C(SC(=S)C1=C1SC(C(=O)c3ccccc3)=C(C(=O)c3ccccc3)S1)SC(=Nc1ccccc1)C2=O | 22.5 | > 100 | 46 | > 100 | 26.4 | > 100 | 30.9 | > 100 | 1140 | 8.38 | 0.625 | > 22.2 | 1.53 | > 68 | 80.4 | > 100 | > 100 | > 100 | 48 | > 100
COC(=O)CCC(=O)C(CC(=O)OC)C(=O)CCC(=O)NCCc1ccccc1 (stereo unspecified) | – | > 100 | – | > 100 | – | > 100 | – | > 100 | – | > 100 | – | > 100 | – | > 100 | – | > 100 | – | > 100 | – | > 100
O=C(O)COc1ccc2c3c1C(=O)CCC3CO2 (stereo unspecified) | – | > 100 | – | > 100 | – | > 100 | – | > 100 | – | > 100 | – | > 100 | – | > 100 | – | > 100 | – | > 100 | – | > 100
O=C(O)c1ccc(NCn2nc(-c3ccccc3O)oc2=S)cc1O | > 100 | > 100 | 8.85 | 60.1 | > 100 | > 100 | > 100 | > 100 | 41900 | > 100 | 26.1 | 82.1 | 95.2 | > 100 | > 100 | > 100 | > 100 | > 100 | > 100 | > 100
CNC(=O)N(CCCC(NC(C)=O)C(=O)NCc1ccccc1)Cc1ccccc1 (stereo unspecified) | – | > 100 | – | > 100 | – | > 100 | – | > 100 | – | > 100 | – | > 100 | – | > 100 | – | > 100 | – | > 100 | – | > 100
